Test results taken from publication PMC8286840, “Identifying SARS-CoV-2 antiviral compounds by screening for small molecule inhibitors of Nsp3 papain-like protease” (Biochemical Journal, 2021).
Counter-ions that a name gives are not always drawn. Like-named read-outs stand apart in the source and are kept apart here.

Legend:
[1] = molecular target: T1, SARS-CoV-2 PLpro (nsp3 1564–1878) (Severe acute respiratory syndrome coronavirus 2, UniProt P0DTD1); assay: biochemical; set-up: FRET-quenched peptide (Pro3) cleavage by PLpro, 10 min pre-incubation, slope over 20 min, normalised to no-compound control; settings: high concentration screen, read-out: % of control remaining
[2] = molecular target: T1, SARS-CoV-2 PLpro (nsp3 1564–1878); assay: biochemical; set-up: FRET-quenched peptide (Pro3) cleavage by PLpro, 10 min pre-incubation, slope over 20 min, normalised to no-compound control; settings: low concentration screen, read-out: % of control remaining

`N[C@@H](Cc1ccccc1)C(=O)N1C/C(=C/c2ccc(Cl)c(Cl)c2)C(=O)/C(=C\c2ccc(Cl)c(Cl)c2)C1` [RA190] gave a remaining activity at 3.75 µM ([1]; Well no.=8408) of 89.8% and a remaining activity at 1.25 µM ([2]; Well no.=8408) of 89.3%.
Work on `COc1ccc(OC)c(C2C(C#N)=C(N)Oc3n[nH]c(-c4ccc5ccccc5c4)c32)c1` (centres unmarked) [RBC8] yielded a remaining activity at 3.75 µM ([1]; Well no.=7809) of 113% and a remaining activity at 1.25 µM ([2]; Well no.=7809) of 105%.
In the case of `CC(C)Oc1cccnc1N(C)C1CCN(Cc2ccc(I)cc2)CC1` [RBI-257 maleate], the remaining activity at 3.75 µM ([1]; Well no.=1402) is reported as 105% and the remaining activity at 1.25 µM ([2]; Well no.=1402) is reported as 103%.
For `CCCCCC(O)c1cccc(OCc2ccc3ccccc3n2)c1` (centres unmarked) [REV 5901], the remaining activity at 3.75 µM ([1]; Well no.=1158) was 101% and the remaining activity at 1.25 µM ([2]; Well no.=1158) was 104%.
For `CCCCCC(O)c1cccc(OCc2ccc3ccccc3n2)c1` (centres unmarked) [REV-5901], the remaining activity at 3.75 µM ([1]; Well no.=4520) was 95.4% and the remaining activity at 1.25 µM ([2]; Well no.=4520) was 92.4%.
`O=C(O)C(Cc1c[nH]c2ccccc12)N1C(=O)c2ccccc2C1=O` (centres unmarked) [RG108] showed a remaining activity at 3.75 µM ([1]; Well no.=4791) of 104%, a remaining activity at 3.75 µM ([1]; Well no.=8370) of 85.1% and a remaining activity at 1.25 µM ([2]; Well no.=4791) of 103%. It also gave a remaining activity at 1.25 µM ([2]; Well no.=8370) of 88.9%.
`CCOc1cc(C(C)(C)C)ccc1C1=N[C@@](C)(c2ccc(Cl)cc2)[C@@](C)(c2ccc(Cl)cc2)N1C(=O)N1CCN(CCCS(C)(=O)=O)CC1` [RG7112] was tested, and the remaining activity at 3.75 µM ([1]; Well no.=6676) was 94% and the remaining activity at 1.25 µM ([2]; Well no.=6676) was 94.8%.
`O=C(NCCCCCCNC(=O)ON=C1CCCCC1)ON=C1CCCCC1` [RHC 80267] was tested, and the remaining activity at 3.75 µM ([1]; Well no.=5818) was 99.1% and the remaining activity at 1.25 µM ([2]; Well no.=5818) was 96.6%.
`CO[C@H]1/C=C/O[C@@]2(C)Oc3c(C)c(O)c4c(O)c(cc(O)c4c3C2=O)NC(=O)/C(C)=C\C=C\[C@H](C)[C@H](O)[C@@H](C)[C@@H](O)[C@@H](C)[C@H](OC(C)=O)[C@@H]1C` [RIFAMYCIN SV] showed a remaining activity at 3.75 µM ([1]; Well no.=1987) of 97.9% and a remaining activity at 1.25 µM ([2]; Well no.=1987) of 105%.
In the case of `CC(C)(C)S(=O)(=O)c1cc2c(Nc3ccc4scnc4c3)ncnc2cc1OCCO` [RIP2 kinase inhibitor 1], the remaining activity at 3.75 µM ([1]; Well no.=6932) is reported as 105% and the remaining activity at 1.25 µM ([2]; Well no.=6932) is reported as 102%.
In the case of `CCC(C)(C)C(=O)N(O)Cc1ccccc1` [RIPA-56], the remaining activity at 3.75 µM ([1]; Well no.=6210) is reported as 92.1% and the remaining activity at 1.25 µM ([2]; Well no.=6210) is reported as 90.8%.
Compound `CCn1cc(-c2ccc3c(c2)CCN3C(=O)Cc2cccc(OC(F)(F)F)c2)c2c(N)ncnc21` [RIPK1-IN-7] has a remaining activity at 3.75 µM ([1]; Well no.=6824) of 94.4% and a remaining activity at 1.25 µM ([2]; Well no.=6824) of 94.8%.
Compound `OCc1ccc(-c2ccc(-c3ccc(CO)s3)o2)s1` [RITA (NSC 652287)] has a remaining activity at 3.75 µM ([1]; Well no.=4741) of 108% and a remaining activity at 1.25 µM ([2]; Well no.=4741) of 103%.
Compound `COc1cc(C(N)=O)ccc1NC(=O)[C@@H]1N[C@@H](CC(C)(C)C)[C@@]2(C(=O)Nc3cc(Cl)ccc32)[C@H]1c1cccc(Cl)c1F` [RO8994] has a remaining activity at 3.75 µM ([1]; Well no.=7108) of 89.6% and a remaining activity at 1.25 µM ([2]; Well no.=7108) of 92.4%.
In the case of `[N-]=[N+]=N[C@]1(CO)O[C@@H](n2ccc(N)nc2=O)[C@@H](O)[C@@H]1O` [RO-9187], the remaining activity at 3.75 µM ([1]; Well no.=7762) is reported as 101% and the remaining activity at 1.25 µM ([2]; Well no.=7762) is reported as 98.5%.
For `C[C@@H](N)[C@H]1CC[C@H](C(=O)Nc2ccncc2)CC1` [ROCK Inhibitor, Y-27632], the remaining activity at 3.75 µM ([1]; Well no.=2452) was 98.5% and the remaining activity at 1.25 µM ([2]; Well no.=2452) was 99.4%.
`O=C(CBr)N1CC([N+](=O)[O-])([N+](=O)[O-])C1` [RRx-001] was tested, and the remaining activity at 3.75 µM ([1]; Well no.=8632) was 98.9% and the remaining activity at 1.25 µM ([2]; Well no.=8632) was 105%.
`O=C1Nc2ccccc2C2(CCN(CCc3ccc(C(F)(F)F)cc3)CC2)O1` [RS102895 (hydrochloride)] was tested, and the remaining activity at 3.75 µM ([1]; Well no.=8003) was 93.3%, the remaining activity at 3.75 µM ([1]; Well no.=8275) was 104% and the remaining activity at 1.25 µM ([2]; Well no.=8003) was 98.5%. The remaining activity at 1.25 µM ([2]; Well no.=8275) was 106%.
`CC(C)c1cc(-c2ccc(F)c3ccccc23)nc(N)n1` [RS 127445] gave a remaining activity at 3.75 µM ([1]; Well no.=8477) of 105% and a remaining activity at 1.25 µM ([2]; Well no.=8477) of 107%.
Work on `Cc1ccc2c(c1)C1(CCN(CCc3nc(-c4ccccc4)oc3C)CC1)OC(=O)N2` [RS 504393] yielded a remaining activity at 3.75 µM ([1]; Well no.=8391) of 95.2% and a remaining activity at 1.25 µM ([2]; Well no.=8391) of 99.2%.
`CC(C)c1cc(-c2ccc(F)c3ccccc23)nc(N)n1` [RS-127445] was tested, and the remaining activity at 3.75 µM ([1]; Well no.=4683) was 102% and the remaining activity at 1.25 µM ([2]; Well no.=4683) was 106%.
`CC(=O)O[C@@H]1[C@@H](OC(C)=O)[C@@H](O)[C@H](Oc2c(-c3ccc(O)cc3)oc3cc(O)cc(O)c3c2=O)O[C@H]1C` [RSK Inhibitor, SL0101] was tested, and the remaining activity at 3.75 µM ([1]; Well no.=2635) was 97.4% and the remaining activity at 1.25 µM ([2]; Well no.=2635) was 95.6%.
`COc1ccc2[nH]cc(C3=CCNCC3)c2c1` [RU 24969] gave a remaining activity at 3.75 µM ([1]; Well no.=7997) of 102% and a remaining activity at 1.25 µM ([2]; Well no.=7997) of 104%.
For `OCCC#Cc1nc(-c2ccc(F)cc2)c(-c2ccncc2)n1CCCc1ccccc1` [RWJ-67657], the remaining activity at 3.75 µM ([1]; Well no.=2987) was 91.7% and the remaining activity at 1.25 µM ([2]; Well no.=2987) was 94.7%.
With `COC1(C2=NCCN2)COc2ccccc2O1` (centres unmarked) [RX 821002 hydrochloride] the remaining activity at 3.75 µM ([1]; Well no.=1208) was 98.7% and the remaining activity at 1.25 µM ([2]; Well no.=1208) was 100%.
Compound `CC(=O)SCC(Cc1ccccc1)C(=O)NCC(=O)OCc1ccccc1` (centres unmarked) [Racecadotril] has a remaining activity at 3.75 µM ([1]; Well no.=2191) of 95.7% and a remaining activity at 1.25 µM ([2]; Well no.=2191) of 97.6%.
For `C[C@@H]1C[C@H]2O[C@@H]2/C=C\C=C\C(=O)Cc2c(Cl)c(O)cc(O)c2C(=O)O1` [Radicicol], the remaining activity at 3.75 µM ([1]; Well no.=3124) was 98.1% and the remaining activity at 1.25 µM ([2]; Well no.=3124) was 95.9%.
Work on `O=C(c1ccc(OCCN2CCCCC2)cc1)c1c(-c2ccc(O)cc2)sc2cc(O)ccc12` [Raloxifene hydrochloride] yielded a remaining activity at 3.75 µM ([1]; Well no.=1204) of 99.2% and a remaining activity at 1.25 µM ([2]; Well no.=1204) of 97.4%.
`O=C(c1ccc(OCCN2CCCCC2)cc1)c1c(-c2ccc(O)cc2)sc2cc(O)ccc12` [Raloxifene] gave a remaining activity at 3.75 µM ([1]; Well no.=1662) of 108% and a remaining activity at 1.25 µM ([2]; Well no.=1662) of 107%.
`Cc1nc(=O)c2cc(CN(C)c3ccc(C(=O)N[C@@H](CCC(=O)O)C(=O)O)s3)ccc2[nH]1` [Raltitrexed (Tomudex)] gave a remaining activity at 3.75 µM ([1]; Well no.=4723) of 106% and a remaining activity at 1.25 µM ([2]; Well no.=4723) of 115%.
`Cc1nc(=O)c2cc(CN(C)c3ccc(C(=O)N[C@@H](CCC(=O)O)C(=O)O)s3)ccc2[nH]1` [Raltitrexed] showed a remaining activity at 3.75 µM ([1]; Well no.=6308) of 99.3%, a remaining activity at 3.75 µM ([1]; Well no.=7452) of 99.7% and a remaining activity at 1.25 µM ([2]; Well no.=6308) of 98.3%. The remaining activity at 1.25 µM ([2]; Well no.=7452) was 104%.
Work on `CCC(=O)NCC[C@@H]1CCc2ccc3c(c21)CCO3` [Ramelteon] yielded a remaining activity at 3.75 µM ([1]; Well no.=8525) of 106% and a remaining activity at 1.25 µM ([2]; Well no.=8525) of 104%.
Work on `CCOC(=O)[C@H](CCc1ccccc1)N[C@@H](C)C(=O)N1[C@H](C(=O)O)C[C@@H]2CCC[C@@H]21` [Ramipril] yielded a remaining activity at 3.75 µM ([1]; Well no.=2195) of 93.2%, a remaining activity at 3.75 µM ([1]; Well no.=7446) of 98.5% and a remaining activity at 1.25 µM ([2]; Well no.=2195) of 94.4%. The remaining activity at 1.25 µM ([2]; Well no.=7446) was 99.8%.
